Measurements from PubChem BioAssay (NCI).
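Growth conditions: 96-well plates. Treatment: test compound, 48 hours, 5 concentrations. Analysis: linear interpolation between bracketing concentrations; unreached endpoints set to highest concentration. GI50 marks 50% less growth. TGI: total growth inhibition.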

Columns and labels:
Experiment in all cases: NCI-60 cell line screen, 48 h
DLD-1 colon = system: DLD-1 colon
HOP-18 NSCLC = system: HOP-18 NSCLC
LXFL 529 NSCLC = system: LXFL 529 NSCLC
M19-MEL melanoma = system: M19-MEL melanoma
RXF-631 renal = system: RXF-631 renal
SNB-78 CNS = system: SNB-78 CNS
T-47D breast = system: T-47D breast
MDA-N = system: MDA-N
XF 498 CNS = system: XF 498 CNS

Row | SMILES | TGI (DLD-1 colon) [µM] | TGI (HOP-18 NSCLC) [µM] | TGI (LXFL 529 NSCLC) [µM] | TGI (M19-MEL melanoma) [µM] | TGI (RXF-631 renal) [µM] | TGI (SNB-78 CNS) [µM] | GI50 (T-47D breast) [µM] | TGI (T-47D breast) [µM] | TGI (MDA-N) [µM] | TGI (XF 498 CNS) [µM]
1 | CC(=O)NC1C(OCc2ccccc2)OC(COC(=O)CCCCCCCCCCNC(=O)CCNc2ccc([N+](=O)[O-])c3[nH]c4ccc(O)cc4c(=O)c23)C(O)C1OC(C)C(=O)N[C@H](C(=O)N[C@H](CCC(=O)O)C(N)=O)C(C)C (stereo partly specified) | > 100 | > 100 | > 100 | > 100 | > 100 | > 100 |  |  |  | 
2 | CCCCCCOc1ccc(/C=N/Nc2cc(C)nc3ccc(Br)cc23)cc1 |  |  |  |  |  |  | 1.82 | 3.72 |  | 
3 | COc1cc(/C=C/C(=O)c2ccc(SC)cc2)cc(OC)c1OC |  |  |  |  |  |  | 9.68 | 62.9 |  | 
4 | COc1ccc(-c2nn(C(=O)c3cc(OC)c(OC)c(OC)c3)c3cc(N)ccc23)cc1 |  |  |  |  |  |  | 2.17 | 7.58 |  | 
5 | NC(CSC(c1ccccc1)(c1ccccc1)c1ccc(Br)cc1)C(=O)O (stereo unspecified) |  |  |  |  |  |  | 0.345 | > 100 |  | 
6 | CCn1cc(C(=O)O)c(=O)c2cc(F)c(N3CCNCC3)nc21 | > 100 | > 100 | > 100 | > 100 | > 100 | > 100 |  |  |  | 
7 | COc1ccc(/C=C2\CCC(CN(C)C)C2=O)cc1 (stereo unspecified) | 12.5 | 19.9 | 4.17 | 26.6 |  | 51.9 |  |  | 9.09 | 16.3
8 | Nc1c2c(c(O)c3c1=C(CO)C=N3)=NCCS2=O (stereo unspecified) |  |  |  |  |  |  | 0.688 | 2.68 |  | 
9 | O=C(c1ccccc1)C(c1ccccc1)C1(O)C(=O)Nc2ccc(Br)cc21 (stereo unspecified) | > 100 |  | 53.1 | 30.6 | > 100 | > 100 |  |  |  | 
10 | COc1ccc2c(C(=O)NCCCCCC(=O)O)cc3cc4c(cc3c2c1)OCO4 |  |  |  |  |  |  | 80 | > 100 |  | 
11 | O=C1/C=C/[C@@H](O)[C@@H]2C[C@@H](O)C[C@H]2/C=C/CCCCO1 |  |  |  |  |  |  | 1.14 | 4.43 |  | 
12 | Cc1nc(N(C)C)nc(-c2cccc(-c3ccn(CCN(C)C)n3)c2)c1C |  |  |  |  |  |  | > 20 | > 20 |  | 
13 | CN(Cc1cccc(Cl)c1)c1ccc(CO)c(Cl)c1 |  |  |  |  |  |  | 0.746 | 5.17 |  | 
14 | Cc1ccc(Sc2cc([N+](=O)[O-])cc(Sc3ccc(C)cc3)c2Sc2ccc(C)cc2)cc1 | > 100 |  | > 100 | > 100 |  | > 100 |  |  |  | > 100
15 | O=C1CCC(=O)C12CCc1ccccc12 | > 100 | > 100 | > 100 | > 100 | > 100 |  |  |  |  | > 100
16 | OC1OC2COC(c3ccccc3)OC2C(O)C1O (stereo unspecified) | > 100 | > 100 | > 100 | > 100 |  | > 100 |  |  |  | > 100
17 | Nc1c(C(=O)Nc2cccc3ccccc23)sc2nc3c(cc12)CCCCCC3 |  |  |  |  |  |  | 25.1 | > 50 |  | 
18 | O=C1C2Cc3ccccc3CN2C(=O)N1CCN1CCOCC1 (stereo unspecified) | > 100 |  | > 100 | > 100 | > 100 |  |  |  |  | 

Row | SMILES | TGI (DLD-1 colon) [µM] | TGI (HOP-18 NSCLC) [µM] | TGI (LXFL 529 NSCLC) [µM] | TGI (M19-MEL melanoma) [µM] | TGI (RXF-631 renal) [µM] | TGI (SNB-78 CNS) [µM] | GI50 (T-47D breast) [µM] | TGI (T-47D breast) [µM] | TGI (MDA-N) [µM] | TGI (XF 498 CNS) [µM]
19 | c1ccc(Oc2cnc3ccccc3n2)cc1 |  |  |  |  |  |  | 75.5 | > 100 |  | 
20 | CC(NC(=O)C1(N)CCCC1)C(=O)O (stereo unspecified) |  |  |  |  |  |  |  | > 100 | > 100 | 
21 | Nc1c(-c2ccc(-c3c(N)[n+]([O-])c4ccccc4[n+]3[O-])cc2)[n+]([O-])c2ccccc2[n+]1[O-] | 27.2 | 20.2 | 35.4 | 36.2 |  | 62.3 |  |  |  | 23.9
22 | CC(=O)O[C@H]1CC[C@@]2(C)[C@@H](CC[C@@H]3[C@@H]2CC(=O)[C@@]2(C)[C@H]3C[C@@H]3CC(C)=CC(=O)[C@@H]32)C1 |  |  |  |  |  |  |  | > 100 | > 100 | 
23 | O=C1COCCN1c1ccc(NCc2cn(Cc3ccc(F)cc3)c3ccccc23)cc1 |  |  |  |  |  |  | 0.0522 |  |  | 
24 | COc1ccc2c(c1)[n+](=O)c(C(=O)C/C(=N\NC(=O)C[N+](C)(C)C)C(=O)Nc1cc(Cl)ccc1Cl)c(C)n2O | > 100 | > 100 | > 100 | > 100 |  | > 100 |  |  |  | 
25 | CCOc1ccc(-n2cc(-c3ccc(N(C)C)cc3)[n+]3c2CCCCC3)cc1 |  |  |  |  |  |  | 0.0692 |  |  | 
26 | Cc1cc(=O)[nH]c2c1C(=O)C(=O)C=C2 |  |  |  |  |  |  | 58.6 | > 100 |  | 
27 | O=C1OC(/C=C/c2ccccc2)C(=O)C1=O (stereo unspecified) | > 100 | > 100 | > 100 | > 100 |  |  |  |  |  | > 100
28 | CCCCCCCCCCCCCCCc1nc(SCC(=O)O)n[nH]1 | 56.1 | > 100 | 66.4 |  | > 100 | > 100 |  |  |  | > 100
29 | COc1cc2c(cc1OC)-c1c(c3ccc([N+](=O)[O-])cc3c(=O)n1CCCBr)C2=O |  |  |  |  |  |  | 0.731 | > 100 |  | 
30 | O=c1cc(/C=C/c2ccccc2)c2ccc(O/C(=C\c3ccccc3)c3nc4ccccc4c(=O)o3)cc2o1 | > 100 |  | 63.9 | 91 | > 100 | 70.8 |  |  |  | 70.5
31 | O=P1(NCCCl)OCCC(OO)N1CCCl (stereo unspecified) | 50.5 | > 100 |  | > 100 |  | 86.7 |  | 17.7 | > 100 | 
32 | Cn1c(=O)c2nc3sc4ccccc4c(=N)n3c2n(C)c1=O | > 100 | > 100 | > 100 | > 100 | > 100 | > 100 |  |  |  | > 100
33 | O=C1OC(=O)C2C1C1(c3ccccc3)OC2(c2ccccc2)c2c(Br)c(Br)c(Br)c(Br)c21 (stereo unspecified) | > 100 | > 100 | > 100 | > 100 |  | > 100 |  |  |  | > 100
34 | Fc1cccc(C2SCc3nc4ccccc4n32)c1 (stereo unspecified) | > 100 |  | > 100 | > 100 | > 100 | > 100 |  |  |  | 
35 | CC1(C)OC(=O)C(c2ccsc2)C(=O)O1 | > 100 | > 100 | > 100 | > 100 | > 100 | > 100 |  |  |  | > 100
